Target: SARS-CoV-2 3CL protease (Severe acute respiratory syndrome coronavirus 2, UniProt P0DTD1)
Test: Inhibitory activity test against SARS-CoV-2 3CL proteases
Type: biochemical
Settings: read-out: IC50 (50% SARS-CoV-2 3CL protease inhibitory concentration)

SMILES | IC50
COc1ccc(Cl)c(-c2cc(OC)c3c(=O)n(Cc4ncn(C)n4)c(=O)n(Cc4cc(F)c(F)c(F)c4)c3c2)c1 [Compound I-0523] | 32 nM
COc1cc(-c2cc(C(C)(C)O)ccc2Cl)cc2c1c(=O)n(-c1cncc(Cl)c1)c(=O)n2Cc1cc(F)c(F)c(F)c1 [Compound I-0075] | 18 nM
Cc1cncc(-n2c(=O)c3c(F)cc(-c4cc(C#N)ccc4Cl)cc3n(Cc3ccc(F)c(C#N)c3)c2=O)c1 [Compound I-0050] | < 100 nM
COc1cc(-c2cc(-c3ncc[nH]3)ccc2Cl)cc2c1c(=O)n(Cc1ncn(C)n1)c(=O)n2Cc1cc(F)c(F)c(F)c1 [Compound I-0123] | < 100 nM
COc1cc(-c2cc(CC(N)=O)ccc2Cl)cc2c1c(=O)n(-c1cncc(Cl)c1)c(=O)n2Cc1cc(F)c(F)c(F)c1 [Compound I-0206] | < 100 nM
O=c1[nH]cccc1Cn1c(=O)c2ccc(N3C[C@H]4C[C@@H]3CN4)cc2n(Cc2cc(F)c(F)c(F)c2)c1=O [Compound I-0140] | 1.3 nM
O=c1[nH]cccc1Cn1c(=O)c2ccc(N3C[C@@H]4C[C@H]3CN4)cc2n(Cc2cc(F)c(F)c(F)c2)c1=O [Compound I-0141] | < 100 nM
COc1cc(-c2cc(C(C)(C)O)ccc2Cl)cc2c1c(=O)n(-c1cncc(C)c1)c(=O)n2Cc1ccc(F)c(C#N)c1 [Compound I-0061] | 2.9 nM
COc1cc(-c2cc(C(C)=O)ccc2Cl)cc2c1c(=O)n(-c1cncc(C)c1)c(=O)n2Cc1ccc(F)c(C#N)c1 [Compound I-0062] | 3.1 nM
COc1cc(-c2cc3c(cc2Cl)NC(=O)C3)cc2c1c(=O)n(-c1cncc(C)c1)c(=O)n2Cc1ccc(F)c(C#N)c1 [Compound I-0060] | 2.7 nM
Cn1cnc(Cn2c(=O)c3c4c(c(-c5cc(C#N)ccc5Cl)cc3n(Cc3cc(F)c(F)c(F)c3)c2=O)CCO4)n1 [Compound I-0414] | 1.5 nM
COc1cc(-c2cc(C(O)C(F)(F)F)ccc2Cl)cc2c1c(=O)n(Cc1ncn(C)n1)c(=O)n2Cc1cc(F)c(F)c(F)c1 (stereo not shown) [Compound I-0517] | < 100 nM
COc1cc(-c2nc3[nH]c(=O)[nH]c3cc2Cl)cc2c1c(=O)n(Cc1ncn(C)n1)c(=O)n2Cc1cc(F)c(F)c(F)c1 [Compound I-0001] | 5.3 nM
COc1cc(-c2cc(C(C)(C)O)ccc2Cl)cc2c1c(=O)n(-c1cncc(C)c1)c(=O)n2Cc1cc(F)c(F)c(F)c1 [Compound I-0069] | 6 nM
COc1cc(-c2cc(C3COC3)ccc2Cl)cc2c1c(=O)n(Cc1ncn(C)n1)c(=O)n2Cc1cc(F)c(F)c(F)c1 [Compound I-0283] | 32 nM
COc1cc(-c2cc(S(C)(=N)=O)ccc2Cl)cc2c1c(=O)n(-c1cncc(Cl)c1)c(=O)n2Cc1cc(F)c(F)c(F)c1 (stereo not shown) [Compound I-0188] | 5.8 nM
COc1nc2c(=O)n(Cc3ncn(C)n3)c(=O)n(Cc3cc(F)c(F)c(F)c3)c2cc1-c1cc(C#N)ccc1Cl [Compound I-0516] | 15 nM
COc1cc(-c2cc(CC(=O)N3CC[C@H](N)C3)ccc2Cl)cc2c1c(=O)n(-c1cncc(Cl)c1)c(=O)n2Cc1cc(F)c(F)c(F)c1 [Compound I-0211] | < 100 nM
N#Cc1ccc(Cl)c(-c2cc3c(c4c2CCO4)c(=O)n(Cc2ncccn2)c(=O)n3Cc2cc(F)c(F)c(F)c2)c1 [Compound I-0442] | < 100 nM
COc1nc(N2CC[C@@H](OC)C2)cc2c1c(=O)n(Cc1ncn(C)n1)c(=O)n2Cc1cc(F)c(F)c(F)c1 [Compound I-0449] | 37 nM
CC(C)Nc1cc2c(c(=O)n(Cc3ncn(C)n3)c(=O)n2Cc2cc(F)c(F)c(F)c2)c2ncn(C)c12 [Compound I-0553] | 100 to 1000 nM
[2H]C1([2H])N(c2cc3c(c(OC)n2)c(=O)n(Cc2ncn(C)n2)c(=O)n3Cc2cc(F)c(F)c(F)c2)C([2H])([2H])C([2H])([2H])C1([2H])[2H] [Compound I-0466] | < 100 nM
COc1cc(-c2cc(-c3ncc[nH]3)ccc2Cl)cc2c1c(=O)n(-c1cncc(Cl)c1)c(=O)n2Cc1ccc(F)c(C#N)c1 [Compound I-0120] | < 100 nM
Cn1cnc(Cn2c(=O)c3ccc(-c4cc5c(cc4Cl)NC(=O)C5)c(F)c3n(Cc3cc(F)c(F)c(F)c3)c2=O)n1 [Compound I-0250] | 35 nM
COc1cc(-c2cc(CO)ccc2Cl)cc2c1c(=O)n(-c1cncc(C)c1)c(=O)n2Cc1cc(F)c(F)c(F)c1 [Compound I-0030] | 8.5 nM
COc1nc(N2CC[C@@H](O)C2)cc2c1c(=O)n(Cc1ncn(C)n1)c(=O)n2Cc1cc(F)c(F)c(Cl)c1 [Compound I-0388] | 20 nM
COc1nc(N2C[C@@H]3CC[C@H]2CN3)cc2c1c(=O)n(-c1cncc(Cl)c1)c(=O)n2Cc1cc(F)c(F)c(Cl)c1 [Compound I-0540] | < 100 nM
Cn1cnc(Cn2c(=O)c3c(F)cc(-c4cc5c(cc4Cl)NC(=O)C5)cc3n(Cc3cc(F)c(F)c(F)c3)c2=O)n1 [Compound I-0270] | < 100 nM
